Source: patent publication US20210215674A1, “COMPOSITIONS AND METHODS FOR SCREENING COMPOUNDS FOR CARDIAC SIDE EFFECTS” (Arizona Board of Regents on Behalf of the University of …, priority 2018, published 2021)

System: hiPSC-CM / fibroblast graft (bioengineered tissue)
Experiment: ECG recording of bioengineered tissue on multi-electrode array with pharmacological perturbations
Assay type: cell-based, human
Details: for change of heart rate of the construct: continuous ECG recording, FIG. 8; for change of QT interval / change of R-R interval (heart rate-equivalent): single bioengineered tissue on multi-electrode array vs baseline, FIG. 10
Procedure: Methods of graft engineering: Human dermal fibroblasts were cultured into a vicryl (polygalctin 910) knitted mesh until the mesh was fully confluent with fibroblasts. Human induced pluripotent stem cell derived cardiomyocytes (hiPSC-CMs) were seeded onto the fibroblasts grafts using centrifugal force (1300 rpms for 5 min). All cell cultures were maintained at […] and 5% CO2 with media changed every 24-48 hrs. Fibroblasts were maintained with 10% FBS in DMEM, hiPSC-CMs were maintained with RPMI+B27. Grafts were either used fresh or after cryopreservation. Fresh grafts were assayed 48 hrs after hiPSC-CM engraftment. Cryopreserved grafts were assayed 2 days post reconstitution. Axion System Methods: […] diameter circular grafts were transferred to the Axion culture well, hiPSC-CM side down and three small 5 mm×1 mm weights were placed on the surface to enhance contact with the electrodes. Cultures were maintained at 37° C. and 5% CO2. Data were obtained at baseline, and then with pharmacological perturbations. NeuroNexus Methods: 1.6 cm diameter circular grafts were placed hiPSC-CM side down on the recording array. Cultures were maintained at 37° C. but no control was available for CO2. […] To enhance contact, the volume of medium in the culture well was reduced from 1.5 ml to 0.25-0.5 ml. Data were obtained at baseline, and then with pharmacological perturbations.

Structure (SMILES) | change of heart rate of the construct | change of QT interval | change of R-R interval (heart rate-equivalent)
CC(C)NCC(O)c1ccc(O)c(O)c1 (stereo not drawn) [Isoproterenol] | increase | decrease | decrease
CC(C)(C)NC[C@H](O)COc1nsnc1N1CCOCC1 [Timolol] | decrease | increase | increase
